Data reported in patent publication US20060166900A1, “Salt of morphine-6-glucuronide” (CeNeS Limited, priority 2002, published 2006).

Legend:
Assay type in all cases: physicochemical
[1] = Visual appearance on storage (Example 3)
Outline: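 Aliquots (900 mg) kept at 2-8 °C beforehand were stored in argon-flushed brown opaque HDPE bottles at 25 °C/60% RH, 40 °C/75% RH and 60 °C. Visual appearance was assessed at set time points.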

[2] = Water content by Karl Fisher analysis on storage (Example 3)
Outline: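 900 mg aliquots were held in argon-flushed brown opaque HDPE bottles at 25 °C/60% RH, 40 °C/75% RH and 60 °C. At each time point, water content (% w/w) was determined in duplicate on about 100 mg of equilibrated material by Karl Fischer titration.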

[3] = Stability of M6G salts at room temperature over 6 years, HPLC
[4] = Colour of solution by visible spectrophotometry on storage (Example 3); conditions: 5% w/v solution in water
Outline: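 5% w/v aqueous solution, absorbance at 420 nm in a 1 cm silica cell. Samples were stored in argon-flushed brown opaque HDPE bottles at 25° C./60% RH, 40° C./75% RH and 60° C.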

[5] = Stability indicating HPLC assay and related substances on storage (Example 3)
[6] = Storage stability of M6G base (general statement)

## CN1CC[C@]23c4c5ccc(O)c4O[C@H]2[C@@H](O[C@@H]2O[C@H](C(=O)O)[C@@H](O)[C@H](O)[C@H]2O)C=C[C@H]3[C@H]1C5 [Morphine-6-glucuronide base, morphine-6-β-D-glucuronide]
[1]; 1 month, 25° C./60% RH
  Appearance: White crystalline powder
[1]; 1 month, 40° C./75% RH
  Appearance: Pale yellow crystalline powder
[1]; 1 month, 60° C.
  Appearance: Yellow crystalline powder
[1]; 3 months, 25° C./60% RH
  Appearance: White crystalline powder
[1]; 3 months, 25° C./60% RH, listed as base
  Appearance: white crystalline solids
[1]; 3 months, 40° C./75% RH
  Appearance: Yellow crystalline powder
[1]; Initial
  Appearance: White crystalline powder
[2]; 1 month, 25° C./60% RH
  Moisture: 9.00 % w/w
[2]; 1 month, 40° C./75% RH
  Moisture: 9.68 % w/w
[2]; 1 month, 60° C.
  Moisture: 8.21 % w/w
[2]; 3 months, 25° C./60% RH
  Moisture: 9.53 % w/w
[2]; 3 months, 40° C./75% RH
  Moisture: 9.85 % w/w
[2]; Initial
  Moisture: 9.80 % w/w
[2]; regardless of storage condition
  moisture content across storage conditions: reasonably consistent
[3]; 0 years
  HN-33177: 0.7%
  Unknown related substances (sum area %): <0.1 area %
[3]; 0 years, content calculated as M6G derivative
  Assay M6G corr.: 98.2%
[3]; 5 years at ambient temperature
  Assay M6G corr.: 81.2%
  HN-33177: 0.8%
  Morphine: 0.3%
  Unknown related substances (sum area %): 11.8 area %
[4]; 1 month, 25° C./60% RH
  Colour: 0.040 Abs@420 nm
[4]; 1 month, 40° C./75% RH
  Colour: 0.182 Abs@420 nm
[4]; 1 month, 60° C.
  Colour: 0.541 Abs@420 nm
[4]; 3 months, 25° C./60% RH
  Colour: 0.132 Abs@420 nm
[4]; 3 months, 40° C./75% RH
  Colour: 0.680 Abs@420 nm
[4]; Initial
  Colour: 0.017 Abs@420 nm
[5]; 1 month, 25° C./60% RH
  Known Related Substances HN33177: 0.88%
  Known Related Substances HN75083: 0.05%
  M6G Assay, Anhydrous basis: 99.61 % w/w
  M6G Assay, As is basis: 90.77 % w/w
  M6G Assay, Corrected for the salt form: 99.61 % w/w
  Total Known: 0.93%
  Total Related Substances: 1.00%
  Total Unknown: 0.07%
[5]; 1 month, 40° C./75% RH
  Known Related Substances HN33177: 0.85%
  Known Related Substances HN67003: 0.05%
  Known Related Substances HN75083: 0.03%
  M6G Assay, Anhydrous basis: 99.45 % w/w
  M6G Assay, As is basis: 89.94 % w/w
  M6G Assay, Corrected for the salt form: 99.45 % w/w
  Total Known: 0.93%
  Total Related Substances: 1.27%
  Total Unknown: 0.34%
[5]; 1 month, 60° C.
  Known Related Substances HN33177: 0.83%
  Known Related Substances HN67003: 0.19%
  Known Related Substances HN75083: 0.02%
  M6G Assay, Anhydrous basis: 96.18 % w/w
  M6G Assay, As is basis: 89.31 % w/w
  M6G Assay, Corrected for the salt form: 96.18 % w/w
  Total Known: 1.04%
  Total Related Substances: 2.31%
  Total Unknown: 1.27%
[5]; 3 month assay data
  stability based on % w/w assay: most stable
[5]; 3 months, 25° C./60% RH
  Known Related Substances HN33177: 0.86%
  Known Related Substances HN67003: 0.04%
  M6G Assay, Anhydrous basis: 100.27 % w/w
  M6G Assay, As is basis: 91.84 % w/w
  M6G Assay, Corrected for the salt form: 100.27 % w/w
  Total Known: 0.90%
  Total Related Substances: 1.42%
  Total Unknown: 0.52%
[5]; 3 months, 40° C./75% RH
  Known Related Substances HN33177: 0.95%
  Known Related Substances HN67003: 0.23%
  Known Related Substances HN75076: 0.01%
  Known Related Substances Morphine: 0.07%
  M6G Assay, Anhydrous basis: 97.15 % w/w
  M6G Assay, As is basis: 88.67 % w/w
  M6G Assay, Corrected for the salt form: 97.15 % w/w
  Total Known: 1.26%
  Total Related Substances: 4.34%
  Total Unknown: 3.08%
  increase in the amount of degradation products as measured by HPLC: approximately 3%
[5]; 25° C./60% RH, three months
  stability assessment: relatively stable
[5]; 40° C./75% RH over 3 months (base also 60° C. over 1 month)
  stability assessment: shows signs of degradation
[5]; Initial
  Known Related Substances HN33177: 0.87%
  Known Related Substances HN67003: 0.05%
  Known Related Substances HN75083: 0.06%
  M6G Assay, Anhydrous basis: 99.79 % w/w
  M6G Assay, As is basis: 91.07 % w/w
  M6G Assay, Corrected for the salt form: 99.79 % w/w
  Total Known: 0.98%
  Total Related Substances: 0.98%
  Total Unknown: 0.00%
[6]; stored at room temperature
  stability on storage: does degrade
[6]; stored at −20° C.
  stability on storage: stable
